Measurements: patent US6436948B1, “Method for the treatment of psoriasis and genital warts” (priority 1995, dated 2002)
“Also recorded” adds a separate entry of the source.

Assays:
Leukemia P388 cells = assay: In vivo treatment of leukemia P388 cells implanted ip in BDF1 mice; conditions: 25x2x5 mg/kg ip
Method: 10^6 Leukemia P388 cells were implanted ip to BDF1 mice obtained from Southern Research Institute, Alabama. (−)-OddC was administered ip twice daily for five days starting one day after tumor cell implantation.
FIG. 3 and Table 1 show the results of these studies.

BDF1 mice = assay: Toxicity to BDF1 mice, ip twice daily for five days; assay type: in vivo; conditions: 75 mg/kg/dose ip twice daily for five days
Colon 38 tumor cells = assay: In vivo treatment of Colon 38 tumor cells implanted sc in BDF1 mice; design: species or system mouse; conditions: 25 mg/kg/dose twice daily for five days
Description: The graph plots tumor growth as a percentage of original tumor weight vs. days. Treatment of the mice occurred in days 1, 2, 3, 4 and 5.
Colon 38 tumor cells were implanted sc to BDF1 mice.

RL-60(TB) = assay: NCI cancer screening program, SRB: RL-60(TB); assay type: cell-based
K-562 = assay: NCI cancer screening program, SRB: K-562; assay type: cell-based; conditions: Leukemia, PG +50, 48 hours
HOP-62 = assay: NCI cancer screening program, SRB: HOP-62; assay type: cell-based; conditions: Non-Small Cell Lung Cancer, PG +50, 48 hours
NCI-H23 = assay: NCI cancer screening program, SRB: NCI-H23; assay type: cell-based; conditions: Non-Small Cell Lung Cancer, PG +50, 48 hours
NCI-H460 = assay: NCI cancer screening program, SRB: NCI-H460; assay type: cell-based; conditions: Non-Small Cell Lung Cancer, PG +50, 48 hours
COLO205 = assay: NCI cancer screening program, SRB: COLO205; assay type: cell-based; conditions: Colon Cancer
SNB-19 = assay: NCI cancer screening program, SRB: SNB-19; assay type: cell-based; conditions: CNS Cancer, PG +50, 48 hours
U251 = assay: NCI cancer screening program, SRB: U251; assay type: cell-based; conditions: CNS Cancer, PG +50, 48 hours
LOX D6VI = assay: NCI cancer screening program, SRB: LOX D6VI; assay type: cell-based; conditions: Melanoma
SK-MEL-5 = assay: NCI cancer screening program, SRB: SK-MEL-5; assay type: cell-based; conditions: Melanoma, PG +50, 48 hours
UACC-62 = assay: NCI cancer screening program, SRB: UACC-62; assay type: cell-based; conditions: Melanoma, PG +50, 48 hours
OVCAR-3 = assay: NCI cancer screening program, SRB: OVCAR-3; assay type: cell-based; conditions: Ovarian Cancer
OVCAR-4 = assay: NCI cancer screening program, SRB: OVCAR-4; assay type: cell-based; conditions: Ovarian Cancer, PG +50, 48 hours
OVCAR-5 = assay: NCI cancer screening program, SRB: OVCAR-5; assay type: cell-based; conditions: Ovarian Cancer, PG +50, 48 hours
OVCAR-8 = assay: NCI cancer screening program, SRB: OVCAR-8; assay type: cell-based; conditions: Ovarian Cancer
SK-OV-3 = assay: NCI cancer screening program, SRB: SK-OV-3; assay type: cell-based; conditions: Ovarian Cancer
CAKI-1 = assay: NCI cancer screening program, SRB: CAKI-1; assay type: cell-based; conditions: Renal Cancer, PG +50, 48 hours
RXF-393 = assay: NCI cancer screening program, SRB: RXF-393; assay type: cell-based; conditions: Renal Cancer, PG +50, 48 hours
PC-3 = assay: NCI cancer screening program, SRB: PC-3; assay type: cell-based; conditions: Prostate Cancer, PG +50, 48 hours
MCF7/ADR-RES = assay: NCI cancer screening program, SRB: MCF7/ADR-RES; assay type: cell-based; conditions: Breast Cancer
HS578T = assay: NCI cancer screening program, SRB: HS578T; assay type: cell-based; conditions: Breast Cancer, PG +50, 48 hours
MDA-N = assay: NCI cancer screening program, SRB: MDA-N; assay type: cell-based; conditions: Breast Cancer, PG +50, 48 hours
[1] = system: PC-3 prostate carcinoma line; assay: In vitro cytotoxicity, methylene blue assay / cell count: PC-3; assay type: cell-based; conditions: three generations, mean ± standard deviation of five experiments, read-out: ID50 (the source's name)
CEM cells = assay: In vitro cytotoxicity, methylene blue assay / cell count: CEM; assay type: cell-based; conditions: Homo sapiens, CCRF-CEM, three generations, mean ± standard deviation of five experiments, read-out: ID50 (the source's name)
HepG2 tumors = assay: HepG2 xenograft in NCr nude mice; assay type: in vivo, human; conditions: for Effect on HepG2 tumors in words: 25 mg/kg twice a day on days 0 through 4, NCr nude mice; for Net cell kill (log 10): HepG2 tumors, 25 mg/kg twice a day days 0 through 4
Method: (§1) FIG. 5 is a graph of the inhibition of human tumor growth by […]. Three to six week old NCr nude mice were inoculated subcutaneously in each flank with 2×10^6 HepG2 or DU-145 cells. Treatment was started when the tumors were in an advanced stage of growth. Drugs were administered twice a day on days 0 through 4 and tumor sizes were measured on the indicated days. […] Each data point represents the means±SD of 10 tumors in graph A and six tumors in graph B.
(§2) Three to six-week-old NCr nude mice (Taconic Immunodeficient Mice and Rats) were inoculated s.c. in each flank with 2×10^6HepG2 or DU-145 cells and tumors were allowed to grow. Treatment was started when the tumors were 100-250mg as determined by caliper measurement and calculated according to the formula:
(§3) Tumor Weight(mg)=length(mm)×width(mm^2)÷2
(§4) Drugs were given at the indicated doses on days 0 through 4 and tumor sizes were measured every several days. The tumor growth curves were generated as described in Bell, et al., Cancer(phila.) 36:2437-2440 (1975), and are illustrated in FIGS. 5(a) and 5(b).

DU-145 tumors = assay: DU-145 xenograft in NCr nude mice; assay type: in vivo, human
Method: as §1, §2, §3, §4

[2] = Phosphorylation to nucleotides in vivo
BKVX = conditions: Non-Small Cell Lung Cancer, PG +50, 48 hours
Description: (§5) GI50, TGI and LC50 are values representing the concentrations at which the PG (percent of growth inhibition), defined below, is +50, 0, and −50, respectively.
(§6) If (Mean ODtest−Mean ODtzero)≧0. then PG=100×(Mean ODtest−Mean ODtzero)/(Mean ODctrl−Mean ODtzero)
(§7) If (Mean ODtest−Mean ODtzero)<0. then PG=100×(Mean ODtest−Mean ODtzero)/(Mean ODtzero)
(§8) Mean ODtzero=The average of optical density measurements of SRB-derived color just before exposure of cells to the test compound.
(§9) Mean ODtestThe average of optical density measurements of SRB-derived color after 48 hours exposure of cells to the test compound.
(§10) Mean ODctrl=The average of optical density measurements of SRB-derived color after 48 hours with no exposure of cells to the test compound.
(§11) If these response parameters could not be obtained by interpolation, the value given for each response parameter is the highest concentration tested and is preceded by a “>” sign.

SP-268 = conditions: CNS Cancer, PG +50, 48 hours
Description: as §5, §6, §7, §8, §9, §10, §11

TK-30 = conditions: Renal Cancer
Description: as §5, §6, §7, §8, §9, §10, §11

cytidine deaminase = cytidine deaminase (Homo sapiens, UniProt P32320); assay: Enzymatic studies of deamination
Chain of cytidine deaminase (P32320 whole entry, species assumed): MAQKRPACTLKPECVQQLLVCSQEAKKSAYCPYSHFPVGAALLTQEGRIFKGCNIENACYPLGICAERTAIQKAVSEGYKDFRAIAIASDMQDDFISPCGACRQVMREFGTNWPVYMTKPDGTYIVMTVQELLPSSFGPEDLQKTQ

A549/ATCC = assay: NCI cancer screening program, SRB: A549/ATCC; conditions: Non-Small Cell Lung Cancer, PG +50, 48 hours
Description: as §5, §6, §7, §8, §9, §10, §11

Structure (SMILES): Nc1ccn([C@@H]2CO[C@H](CO)O2)c(=O)n1 [(−)-OddC, (−)-(2S,4S)-1-(2-hydroxymethyl-1,3-dioxolan-4-yl)cytosine]
- Cures/Total (survivors equal or greater than 45 day life span) (Leukemia P388 cells): one long term survivor
- Mean Survival Time (Leukemia P388 cells; twice a day on days 1 to 5, 10^6 P388 cells ip on day 0): 27 days
- Toxicity to the mice (BDF1 mice): toxic
- Colon tumor cell growth (Colon 38 tumor cells): retarded
- Log10GI50 (RL-60(TB)): −6.28
- Log10GI50 (K-562): −4.59
- Log10GI50 (HOP-62): −6.23
- Log10GI50 (NCI-H23): −4.92
- Log10GI50 (NCI-H460): −4.32
- Log10TGI (COLO205; PG 0, 48 hours): >−4.00
- Log10GI50 (COLO205; PG +50, 48 hours): −4.03
- Log10GI50 (SNB-19): −5.71
- Log10GI50 (U251): −4.91
- Log10TGI (LOX D6VI; PG 0, 48 hours): >−4.00
- Log10GI50 (LOX D6VI; PG +50, 48 hours): −6.39
- Log10GI50 (SK-MEL-5): −4.91
- LOG10GI50 (UACC-62): −5.53
- LOG10TGI (OVCAR-3; PG 0, 48 hours): >−4.00
- LOG10GI50 (OVCAR-3; PG +50, 48 hours): −4.44
- LOG10GI50 (OVCAR-4): >−4.00
- LOG10GI50 (OVCAR-5): −4.41
- LOG10TGI (OVCAR-8; PG 0, 48 hours): >−4.00
- LOG10GI50 (OVCAR-8; PG +50, 48 hours): −5.82
- LOG10TGI (SK-OV-3; PG 0, 48 hours): >−4.00
- LOG10GI50 (SK-OV-3; PG +50, 48 hours): −5.35
- LOG10GI50 (CAKI-1): −6.65
- LOG10GI50 (RXF-393): −6.17
- LOG10GI50 (PC-3): −6.29
- LOG10TGI (MCF7/ADR-RES; PG 0, 48 hours): >−4.00
- LOG10GI50 (MCF7/ADR-RES; PG +50, 48 hours): −4.97
- LOG10GI50 (HS578T): >−4.00
- LOG10GI50 (MDA-N): −4.33
- IC50 [1]: 56 ± 39 nM
- IC50 (CEM cells): 25 ± 30 nM
- Effect on HepG2 tumors in words (HepG2 tumors): active
- Effect on HepG2 tumors in words (HepG2 tumors; listed as (L)-OddC): effective
- Net cell kill (log 10) (HepG2 tumors; i.p. treatment): 0.67
- Net cell kill (log 10) (HepG2 tumors; oral treatment): 0.87
- Effect on DU-145 tumors in words (DU-145 tumors; 25 mg/kg twice a day on days 0 through 4, NCr nude mice): effective
- DU-145 tumors regressing completely (DU-145 tumors; by day 15): half of them regressing completely
- Phosphorylation in vivo [2]: can be phosphorylated to mono-, di- and tri-phosphate nucleotide
- Log10GI50 (BKVX): >−4.00
- Log10GI50 (SP-268): −5.18
- LOG10TGI (TK-30; PG 0, 48 hours): >−4.00
- LOG10GI50 (TK-30; PG +50, 48 hours): >−4.00
- Substrate for deaminase / deamination by cytidine deaminase (cytidine deaminase): not a substrate; also recorded: not deaminated
- Log10GI50 (A549/ATCC): −6.01
